{"source": "patent US20240148757A1", "about": "“USE OF DIHYDROOROTATE DEHYDROGENASE (DHODH) INHIBITORS TO TARGET FERROPTOSIS IN CANCER THERAPY” (BOARD OF REGENTS, THE UNIVERSITY OF TEXAS SYSTEM, priority 2021, published 2024)", "key": {"[1]": {"test_system": "GPX4^low NCI-H226 xenografts", "experiment": "NCI-H226 xenograft model", "type": "in vivo, athymic nude mice", "details": "liproxstatin-1 10 mg/kg intraperitoneally daily", "procedure": "All the xenograft experiments were performed in accordance with a protocol approved by the Institutional Animal Care and Use Committee and Institutional Review Board at The University of Texas MD Anderson Cancer Center. The study is compliant with all relevant ethical regulations regarding animal research. Female 4- to 6-week-old athymic nude mice (Foxn1^nu/Foxn1^nu) were purchased from the Experimental Radiation Oncology Breeding Core Facility at MD Anderson Cancer Center and housed in the Animal Care Facility at the Department of Veterinary Medicine and Surgery at MD Anderson. Cancer cell lines were suspended and counted in cold phosphate-buffered saline (PBS), and 5×10^6 HT-1080 or 1×10^7 NCI-H226 cells were injected into mice subcutaneously. When the tumor reached 50-100 mm^3, the mice were assigned randomly into different treatment groups. Brequinar or sulfasalazine was dissolved in dimethyl sulfoxide (DMSO) and diluted in PBS. Brequinar was intraperitoneally injected into mice at a dose of 30 mg/kg every three days. Sulfasalazine was intraperitoneally injected daily at a dose of 100 mg/kg. Liproxstatin-1 diluted in PBS was intraperitoneally injected daily at a dose of 10 mg/kg. […] The tumor volume was measured every 3 days until the endpoint and calculated according to the equation volume=length×width^2×½."}, "[2]": {"test_system": "DHODH KO HT-1080 cells", "experiment": "Cell viability / cell death (ferroptosis) in DHODH KO HT-1080 cells", "type": "cell-based, human", "details": "DHODH KO; pretreatment 10 μM, 24 hours", "procedure": "Knockout of DHODH, ACSL4 and COQ2 in human cell lines was performed using single guide RNAs (sgRNAs) and doxycycline (DOX)-inducible CRISPR-Cas9 expression system as described in our recent publication (Lee, H., et al., Nature cell biology 22, 225-234 (2020)). sgRNAs were cloned into the lentiviral lentiGuide vector. LentiGuide clones were transfected into HEK293T cells with psPAX2 packaging plasmid and pMD2.G expressing plasmid. Cells were infected with lentivirus with 0.8 μg/ml polybrene, selected with puromycin (1 μg/ml, InvivoGen), blasticidin (2 μg/ml, InvivoGen) or hygromycin B (2 μg/ml, InvivoGen) for 3 days and then single cells were sorted into 96-well plates. Single cells were maintained in DMEM with 10% (v/v) FBS and 1% (v/v) penicillin/streptomycin at 37° C. in an incubator with 20% O2 and 5% CO2 for 3-4 weeks and each colony was verified by western blot to confirm the target gene deletion. To generate cell lines with DOX-inducible CRISPR-Cas9-mediated gene deletion, cells were infected with lentivirus, selected with puromycin (1 μg/ml, InvivoGen), blasticidin (2 μg/ml, InvivoGen) or hygromycin B (2 μg/ml, InvivoGen) for 2 days and then single cells were sorted into 96-well plates. Once cell lines were established, 1 μg/ml of DOX (Sigma-Aldrich) was added to the media to induce target gene deletion for 48 hours after selection; then cells were cultured in DOX-free media for subsequent analyses.\nViable cells were measured using Cell Counting Kit-8 (CCK-8, Dojindo) as previously described (Koppula, P., Zhang, Y., Shi, J., Li, W. & Gan, B, J Biol Chem 292, 14240-14249 (2017); Liu, X. & Gan, B, Cell Cycle 15, 3471-3481 (2016)). Briefly, cells were seeded onto 96-well plates at a density of 2×10^4 per well. The next day, cells were treated with GPX4 or DHODH inhibitors for 4 hours. Subsequently, cells exposed to 10 μl CCK-8 reagent (100 μl medium per well) for 1 hour at 37° C., 5% CO2 in an incubator. The absorbance at a wavelength of 450 nm was determined using a FLUOstar Omega microplate reader (BMG Labtech).\nCell death was measured by propidium iodide (Roche) staining using a flow cytometer, as previously described (Dai, F., et al., Proc Natl Acad Sci USA 114, 3192-3197 (2017); Zhang, Y., et al., Cancer Res 80, 2243-2256 (2020)). For propidium iodide-staining, cells were seeded at a density of 50% confluence into 12-well plates. The next day, cells were treated with different reagents. To measure cell death, the cells were collected (including floating dead cells), stained with 5 μg/ml propidium iodide and the percentage of the propidium iodide-positive dead cell population was analyzed using the flow cytometer BD Accuri C6 (BD Biosciences) and an FL2 detector. A minimum of 10,000 single cells were analyzed per well and all experiments were carried out at least in triplicate."}, "[3]": {"test_system": "GPX4^high HT-1080 cells", "experiment": "Cell viability / cell death (ferroptosis) in HT-1080 cells", "type": "cell-based, human", "details": "24 hours", "how_it_was_run": "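HT-1080 cells were exposed to GPX4 or DHODH inhibitors for 4 h, and viability was then read by CCK-8 absorbance at 450 nm after 1 h at 37 °C. Separately, cell death was scored as the propidium iodide-positive fraction (5 μg/ml) by flow cytometry, ≥10,000 cells per well.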"}, "[4]": {"test_system": "GPX4^low patient-derived xenografts (PDXs)", "experiment": "GPX4^low patient-derived xenograft model", "type": "in vivo, NSG mice", "details": "liproxstatin-1 10 mg/kg intraperitoneally daily", "description": "PDXs were generated in accordance with protocols approved by the Institutional Review Board at The University of Texas MD Anderson Cancer Center. Informed consent was obtained from the patients and the study is compliant with all relevant ethical regulations regarding research involving human participants. All the NOD scid gamma (NSG) mice were purchased from the Experimental Radiation Oncology Breeding Core Facility at MD Anderson Cancer Center and housed in the Animal Care Facility at the Department of Veterinary Medicine and Surgery at MD Anderson Cancer Center. PDX model used in this study was originally obtained from lung cancer PDX platform at MD Anderson Cancer Center. PDX experiments were performed as previously described (Liu, X., et al., Nat Cell Biol 22, 476-486 (2020)). Briefly, PDX tumors in cold DMEM media were minced into fragments 1-2 mm^3 in volume. Then each PDX tumor fragment was subcutaneously inoculated into the dorsal flank of NSG mice. When the tumors reached 50-100 mm 3 in volume, the mice were assigned randomly into different treatment groups for the treatment of brequinar, sulfasalazine, and/or liproxstatin-1 as described under cell line-derived xenograft model. The tumor volume was measured every 3 days until the endpoint and calculated according to the equation volume=length×width^2×½."}}}
{"smiles": "Clc1cccc(CN=C2Nc3ccccc3NC23CCNCC3)c1", "note": "[liproxstatin-1]", "values": [{"measurement": "restoration of brequinar-suppressed tumor growth", "setting": "[1]", "value": "could be restored"}, {"measurement": "protection against GPX4 inhibition (RSL3 or ML162)-induced ferroptosis", "setting": "[2]", "value": "rescued"}, {"measurement": "rescue of DHODH inhibition-induced cell death", "setting": "[3]; BQR, pretreatment Lip-1 or ZVF 10 μM", "value": "the opposite was observed"}, {"measurement": "protection against GPX4 inhibition (RSL3 or ML162)-induced ferroptosis", "setting": "[3]; DHODH WT, pretreatment 10 μM", "value": "rescued"}, {"measurement": "restoration of brequinar-suppressed tumor growth", "setting": "[4]", "value": "could be restored"}]}
